Data published in patent publication US20250073339A1, “CONJUGATES COMPRISING CLEAVABLE LINKERS” (priority 2023, published 2025).
Numbered stars: 1 amine (or outer) side, 2 acyl side, 3 side chain; on linkers, the order of the positions; unused ones are H or OH. Square brackets hold non-standard residues; d marks the D form. Peptide text beside a SMILES is read from it. * marks the point of attachment. X1 = O=C(O)[C@H]1O[C@@H](Oc2ccc(COC(=O)[*:2])cc2N[*:1])[C@H](O)[C@@H](O)[C@@H]1O; CH3O(CH2CH2O)11CH2CH2CO = COCCOCCOCCOCCOCCOCCOCCOCCOCCOCCOCCOCCC(=O)*; Dolaproine = CO[C@@H]([C@@H]1CCCN1)[C@@H](C)C(=O)O; Hexanoyl(6-maleimido) = O=C1C=CC(=O)N1CCCCCC(=O)*; Propanoyl(3-maleimido) = O=C1C=CC(=O)N1CCC(=O)*; Dil = CC[C@H](C)[C@H](NC)[C@@H](CC(=O)O)OC; PABC = O=C(OCc1ccc(N[*:1])cc1)[*:2]; X2 = C[C@@H](N*)[C@@H](O)c1ccccc1; Cit = NC(=O)NCCC[C@H](N)C(=O)O; NMeV = CN[C@H](C(=O)O)C(C)C; βAla = NCCC(=O)O

Columns and labels:
Assay type in all cases: biochemical
[1] = biological target: T1, Human neutrophil elastase (Homo sapiens, UniProt P08246); assay: Linker-Payload enzymatic cleavage with human neutrophil elastase; settings: 0.67 μM enzyme, 67 μM Linker-Payload, pH 7.4, 37° C., 24 hours
T1 sequence (P08246 30-267): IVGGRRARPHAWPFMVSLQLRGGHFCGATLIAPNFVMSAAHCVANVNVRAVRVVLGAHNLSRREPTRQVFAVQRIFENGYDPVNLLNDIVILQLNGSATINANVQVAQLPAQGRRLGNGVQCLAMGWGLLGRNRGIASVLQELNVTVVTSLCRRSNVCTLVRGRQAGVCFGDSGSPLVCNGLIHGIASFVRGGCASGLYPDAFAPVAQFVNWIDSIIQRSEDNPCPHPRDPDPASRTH
Method: (§1) 0.67 μM Human neutrophil elastase was added to 67 μM Linker-Payload (1:100) in Tris Buffered Saline, pH 7.4. The mixture was incubated at 37° C. for a duration of 24 hours with intermediate timepoints collected and diluted 1:1 with buffer containing acetonitrile, water and formic acid. The sample was measured by reverse-phase HPLC with data quantified against a standard curve.

β-glucuronidase = biological target: T2, β-glucuronidase (Homo sapiens, UniProt P08236); assay: Linker-Payload enzymatic cleavage with β-glucuronidase; settings: 4 nM enzyme, 40 μM Linker-Payload, pH 5.0, 37° C., 24 hours; for cleavage in the presence of β-glucuronidase: FIG. 1A
T2 sequence (P08236 23-651): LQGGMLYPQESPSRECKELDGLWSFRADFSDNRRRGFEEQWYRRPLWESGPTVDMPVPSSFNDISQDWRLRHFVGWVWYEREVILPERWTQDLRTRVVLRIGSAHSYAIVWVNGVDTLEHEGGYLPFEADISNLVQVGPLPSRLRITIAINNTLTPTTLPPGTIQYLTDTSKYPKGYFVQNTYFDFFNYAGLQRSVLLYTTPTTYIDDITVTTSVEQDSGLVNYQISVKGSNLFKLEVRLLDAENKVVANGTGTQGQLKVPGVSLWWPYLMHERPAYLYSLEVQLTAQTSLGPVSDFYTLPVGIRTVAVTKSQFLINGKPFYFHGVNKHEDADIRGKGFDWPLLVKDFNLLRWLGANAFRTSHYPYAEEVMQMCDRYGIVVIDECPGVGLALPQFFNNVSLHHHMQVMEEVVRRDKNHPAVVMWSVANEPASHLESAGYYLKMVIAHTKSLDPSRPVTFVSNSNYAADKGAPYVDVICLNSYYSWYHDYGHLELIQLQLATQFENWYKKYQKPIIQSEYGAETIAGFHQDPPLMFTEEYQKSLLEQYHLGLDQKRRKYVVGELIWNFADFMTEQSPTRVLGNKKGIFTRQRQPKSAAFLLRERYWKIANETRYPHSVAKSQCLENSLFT
Method: as §1, with “4 nM β-glucuronidase” for “0.67 μM Human neutrophil elastase”, “40” for “67”, “(1:10,000)” for “(1:100)”, “50 mM sodium acetate,” for “Tris Buffered Saline,”, “5.0.” for “7.4.”

Cathepsin B = Cathepsin B (Homo sapiens, UniProt P07858); assay: Linker-Payload enzymatic cleavage with cathepsin B; settings: FIG. 1B; 0.14 μM enzyme, 70 μM Linker-Payload, pH 5.0, 37° C., 24 hours
Method: as §1, with “0.14” for “0.67”, “Cathepsin B” for “Human neutrophil elastase”, “70” for “67”, “(1:500)” for “(1:100)”, “50 mM sodium acetate, 1 mM DTT,” for “Tris Buffered Saline,”, “5.0.” for “7.4.”

Structure (SMILES)	cleavage in the presence of human neutrophil elastase ([1]; FIG. 1C)	cleavage in the presence of β-glucuronidase (β-glucuronidase)	cleavage in the presence of β-glucuronidase relative to references (β-glucuronidase; FIG. 1E)	cleavage in the presence of human neutrophil elastase ([1]; FIG. 1D)	cleavage in the presence of cathepsin B (Cathepsin B)
CC[C@H](C)[C@@H]([C@@H](CC(=O)N1CCC[C@H]1[C@H](OC)[C@@H](C)C(=O)N[C@H](C)[C@@H](O)c1ccccc1)OC)N(C)C(=O)[C@@H](NC(=O)[C@H](C(C)C)N(C)C(=O)OCc1ccc(NC(=O)[C@H](CCCNC(N)=O)NC(=O)[C@@H](NC(=O)CCCCCN2C(=O)C=CC2=O)C(C)C)cc1)C(C)C [LP1, maleimidocaproyl-valine-citrulline-p-aminobenzoyloxycarbonyl-MMAE, reference compound] ({Hexanoyl(6-maleimido)}-V[Cit][PABC][NMeV]V[Dil][Dolaproine]-X2)	underwent more rapid cleavage	–	–	–	–
CC[C@H](C)[C@@H]([C@@H](CC(=O)N1CCC[C@H]1[C@H](OC)[C@@H](C)C(=O)N[C@H](C)[C@@H](O)c1ccccc1)OC)N(C)C(=O)[C@@H](NC(=O)[C@H](C(C)C)N(C)C(=O)OCc1ccc(O[C@@H]2O[C@H](C(=O)O)[C@@H](O)[C@H](O)[C@H]2O)c(CNC(=O)CCNC(=O)COC2(CNC(=O)CCN3C(=O)C=CC3=O)CN(C(=O)CCOCCOCCOCCOCCOCCOCCOCCOCCOCCOCCOCCOC)C2)c1)C(C)C [LP2]	did not undergo rapid cleavage	underwent significant cleavage	underwent slower cleavage than both LP7 (Reference) and LP8 (Reference)	did not undergo rapid cleavage	neither LP2 nor LP3 underwent rapid cleavage
CC[C@H](C)[C@@H]([C@@H](CC(=O)N1CCC[C@H]1[C@H](OC)[C@@H](C)C(=O)N[C@H](C)[C@@H](O)c1ccccc1)OC)N(C)C(=O)[C@@H](NC(=O)[C@H](C(C)C)N(C)C(=O)OCc1ccc(O[C@@H]2O[C@H](C(=O)O)[C@@H](O)[C@H](O)[C@H]2O)c(CNC(=O)COC2(CNC(=O)CCN3C(=O)C=CC3=O)CN(C(=O)CCOCCOCCOCCOCCOCCOCCOCCOCCOCCOCCOCCOC)C2)c1)C(C)C [LP3]	did not undergo rapid cleavage	underwent significant cleavage	–	–	neither LP2 nor LP3 underwent rapid cleavage
CC[C@H](C)[C@@H]([C@@H](CC(=O)N1CCC[C@H]1[C@H](OC)[C@@H](C)C(=O)N[C@H](C)[C@@H](O)c1ccccc1)OC)N(C)C(=O)[C@@H](NC(=O)[C@H](C(C)C)N(C)C(=O)OCc1ccc(O[C@@H]2O[C@H](C(=O)O)[C@@H](O)[C@H](O)[C@H]2O)c(CNC(=O)CCNC(=O)[C@H](CCCCNC(=O)CCOCCOCCOCCOCCOCCOCCOCCOCCOCCOCCOCCOC)NC(=O)CCN2C(=O)C=CC2=O)c1)C(C)C [LP7, reference compound]	–	–	–	did not undergo rapid cleavage	–
CC[C@H](C)[C@@H]([C@@H](CC(=O)N1CCC[C@H]1[C@H](OC)[C@@H](C)C(=O)N[C@H](C)[C@@H](O)c1ccccc1)OC)N(C)C(=O)[C@@H](NC(=O)[C@H](C(C)C)N(C)C(=O)OCc1ccc(O[C@@H]2O[C@H](C(=O)O)[C@@H](O)[C@H](O)[C@H]2O)c(NC(=O)CCNC(=O)[C@H](CCCCNC(=O)CCOCCOCCOCCOCCOCCOCCOCCOCCOCCOCCOCCOC)NC(=O)CCN2C(=O)C=CC2=O)c1)C(C)C [LP8, reference compound] ({Propanoyl(3-maleimido)}-K(CH3O(CH2CH2O)11CH2CH2CO)[βAla][X1][NMeV]V[Dil][Dolaproine]-X2)	–	–	–	did not undergo rapid cleavage	–
